Data from US10758549B2, “Compositions of obeticholic acid and methods of use” (Intercept Pharmaceuticals, Inc., priority 2015, dated 2020).

Assay: Physiologic pharmacokinetic model of OCA (population PK fit and simulations)
Parameters: species or system human
Procedure: Plasma levels of OCA and its conjugates were measured in healthy subjects and cirrhotic patients with varying degrees of hepatic impairment. A physiologic pharmacokinetic model for OCA was developed to quantitatively describe the absorption, distribution, metabolism, and excretion of OCA in patients with and without hepatic impairment. The model was based on a published multi-compartment PK model for CDCA, and consisted of systemic, hepatobiliary, and intestinal systems. The model was used to simulate the pathophysiological abnormalities caused by cirrhosis including decreased hepatic uptake, portal-systemic shunting, decreased liver volume, and differences in amino acid conjugation.
This examples describes development of a physiologic PK model to quantitatively describe the absorption, distribution, metabolism, and excretion of OCA. In addition, the model was used to define the effects of hepatic impairment to predict the systemic and liver exposure to OCA in subjects with various degrees of liver impairment relative to healthy subjects with normal liver function. The model was developed based on 3 studies in healthy volunteers and 2 studies in patients with varying degrees of hepatic impairment […].
Data from was used to develop the model in healthy subjects (n=160) and then adjust for hepatic impairment (n=32) using the data from the above Examples. After development, the model was validated with data sourced from healthy subjects and cirrhotic patients.
The data used in model development included subject identifiers, time of dosing and sample collection, plasma drug concentrations (OCA, glyco-OCA, and tauro-OCA), dose amount, disease status (e.g., Child-Pugh score), and meal consumption information. Study participants received standardized meals at specified times during inpatient observation. Gallbladder contraction was assumed to last 90 minutes after the start of a meal. Drug concentrations below the limit of quantification (BLQ) were imputed to half of the lower limit of quantification (LLOQ). Observed and BLQ concentrations of OCA, glyco-OCA, and tauro-OCA associated with samples drawn prior to the first dose were excluded from the analyses.
A number of structural modifications were made to the base CDCA model in order to adapt it for use with OCA. For simplification, a single space was used to represent the gut (small and large intestines). Since OCA is an exogenous molecule, it was assumed that there was no endogenous synthesis and an absorption compartment with a first-order transfer coefficient (Ka) was included to represent the administration and absorption kinetics of an oral OCA dose. Based on steric hindrance by the 6-ethyl group of OCA, no bacterial 7-alpha dehydroxylation biotransformation activity (i.e., CDCA to lithocholic acid) was included in the model. Compartment volumes in the model were fixed to physiological values from the base CDCA model. The OCA model used the physiological flow values for blood, bile and gastrointestinal transit from the original physiologic PK model for CDCA, with the exception of flows from bile duct to gallbladder and from bile duct to gut. The physiological values from the base model led to poor predictions and may not be applicable due to the simplification of the enteral system into a unified gut compartment. The biotransformation and transport rates in the model, being dependent on chemical entity structure, were estimated by fitting the model to the plasma concentration time profiles of OCA, glyco-OCA, and tauro-OCA.
The PK model was first developed using the OCA, glyco-OCA, and tauro-OCA plasma concentration time profiles from healthy volunteers with normal hepatic function. Model parameter estimates related to healthy physiology were then held constant while the PK model was further developed using OCA, glyco-OCA, and tauro-OCA plasma concentration time profiles from patients with hepatic impairment (Child-Pugh scores A, B, and C). […]

[1] = exponent on t10, model estimate
[2] = normal hepatic function, model estimate

CC[C@H]1[C@@H](O)[C@@H]2[C@H](CC[C@]3(C)[C@@H]([C@H](C)CCC(=O)O)CC[C@@H]23)[C@@]2(C)CC[C@@H](O)C[C@@H]12 [OCA, 3α,7α-dihydroxy-6α-ethyl-5β-cholan-24-oic acid]
Effect in Mild hepatic impairment in hepatic uptake of OCA and conjugates [1]: −0.132 | Effect in Moderate hepatic impairment in hepatic uptake of OCA and conjugates [1]: −1.86 | Effect in Severe hepatic impairment in hepatic uptake of OCA and conjugates [1]: −2.37 | Effect of Mild hepatic impairment on OCA tauro-conjugation (exponent, model estimate): 0.00481 | Effect of Moderate hepatic impairment on OCA tauro-conjugation (exponent, model estimate): 1.05 | Effect of Severe hepatic impairment on OCA tauro-conjugation (exponent, model estimate): 1.56 | Ka: OCA first order rate constant of oral absorption [2]: 5.32 h⁻¹ | b16: OCA rate of conjugation with glycine [2]: 1.44 h⁻¹ | b18: OCA rate of conjugation with taurine [2]: 0.312 h⁻¹ | kout: Rate of fecal elimination of OCA [2]: 0.612 L/h | t10: OCA transport rate from liver to sinusoidal space [2]: 1698 h⁻¹ | t34: OCA rate of absorption from gut to portal space [2]: 0.857 h⁻¹
